{"source": "patent US12540131B2", "about": "(Merck Sharp & Dohme LLC, priority 2019, dated 2026)"}
{"target": "GST tagged truncated human mutant G2019S LRRK2 (Homo sapiens (Human), UniProt Q5S007, G2019S)", "sequence (Q5S007 970-2527 G2019S)": "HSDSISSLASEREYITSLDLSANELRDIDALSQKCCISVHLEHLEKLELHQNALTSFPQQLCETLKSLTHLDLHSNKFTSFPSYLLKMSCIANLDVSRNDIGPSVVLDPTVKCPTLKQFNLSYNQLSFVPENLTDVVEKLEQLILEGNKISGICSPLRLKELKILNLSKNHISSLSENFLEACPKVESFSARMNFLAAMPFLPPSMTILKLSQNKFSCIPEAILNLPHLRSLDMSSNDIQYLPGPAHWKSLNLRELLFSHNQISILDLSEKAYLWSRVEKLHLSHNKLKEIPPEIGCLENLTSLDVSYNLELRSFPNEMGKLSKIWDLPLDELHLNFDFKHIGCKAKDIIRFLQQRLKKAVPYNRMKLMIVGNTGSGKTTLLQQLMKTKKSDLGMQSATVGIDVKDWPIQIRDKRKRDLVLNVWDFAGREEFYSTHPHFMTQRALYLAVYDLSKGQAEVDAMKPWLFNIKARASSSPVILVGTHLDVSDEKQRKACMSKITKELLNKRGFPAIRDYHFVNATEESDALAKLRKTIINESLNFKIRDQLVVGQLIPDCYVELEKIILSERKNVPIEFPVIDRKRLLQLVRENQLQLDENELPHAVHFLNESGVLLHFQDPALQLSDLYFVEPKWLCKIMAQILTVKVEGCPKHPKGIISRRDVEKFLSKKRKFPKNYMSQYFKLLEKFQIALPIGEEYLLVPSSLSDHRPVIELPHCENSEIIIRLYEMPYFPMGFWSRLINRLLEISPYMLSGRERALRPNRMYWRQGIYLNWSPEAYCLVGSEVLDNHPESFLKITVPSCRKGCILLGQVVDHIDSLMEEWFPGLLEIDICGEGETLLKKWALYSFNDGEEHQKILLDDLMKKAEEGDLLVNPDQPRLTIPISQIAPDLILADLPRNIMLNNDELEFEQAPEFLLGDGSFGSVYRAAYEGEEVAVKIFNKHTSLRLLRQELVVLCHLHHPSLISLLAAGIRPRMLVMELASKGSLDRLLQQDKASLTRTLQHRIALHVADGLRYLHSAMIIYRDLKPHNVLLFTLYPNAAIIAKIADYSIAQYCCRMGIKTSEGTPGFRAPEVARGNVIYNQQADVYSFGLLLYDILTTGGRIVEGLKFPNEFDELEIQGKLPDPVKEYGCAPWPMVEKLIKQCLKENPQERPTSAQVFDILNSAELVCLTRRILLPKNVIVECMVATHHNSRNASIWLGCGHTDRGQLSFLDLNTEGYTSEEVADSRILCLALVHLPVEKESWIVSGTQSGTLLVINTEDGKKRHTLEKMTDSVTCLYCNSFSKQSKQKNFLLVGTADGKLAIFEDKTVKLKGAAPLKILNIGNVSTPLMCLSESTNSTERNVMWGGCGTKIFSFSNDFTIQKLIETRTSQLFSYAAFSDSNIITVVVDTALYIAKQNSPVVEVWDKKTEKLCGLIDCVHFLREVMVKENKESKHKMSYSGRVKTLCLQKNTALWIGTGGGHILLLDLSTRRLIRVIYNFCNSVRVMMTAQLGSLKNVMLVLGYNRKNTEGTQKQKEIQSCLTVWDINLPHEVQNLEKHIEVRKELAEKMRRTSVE", "test": "LRRK2 Km ATP LanthaScreen Assay", "type": "biochemical", "settings": "G2019S LRRK2, 134 μM ATP (Km ATP), mean values", "procedure,_shortened": "(§1)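 Enzyme (GST-tagged, truncated) was preincubated with compound for 15 min at RT in 50 mM Tris pH 8.5, 10 mM MgCl2, 0.01% Brij-35, 1 mM EGTA, 2 mM DTT and 0.05 mM orthovanadate. Fluorescein-LRRKtide and 134 μM ATP (Km) were then added for 90 min. EDTA and Tb-anti-pERM antibody stopped the reaction; the TR-FRET 520/495 ratio gave 4-parameter IC50s, reported as mean pIC50.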"}
{"smiles": "Cc1c(Nc2ncc3cc(Cl)c(C4CCN(C5COC5C)CC4)cc3n2)cnn1C(C)(C)C#N", "note": "(single isomer, unassigned) [Ex-4.134, (2R,3R) or (2S,3S) or (2S,3R) or (2R,3S) 2-[4-({6-chloro-7-[1-(2-methyloxetan-3-yl)piperidin-4-yl]quinazolin-2-yl}amino)-5-methyl-1H-pyrazol-1-yl]-2-methylpropanenitrile]", "LRRK2 pIC50": ">9.20"}
{"smiles": "COCC12CC(n3ncc(Nc4ncc5cc(Cl)c(C6CCN(C7(C)COC7)CC6)cc5n4)c3Cl)(C1)C2", "note": "[Ex-8.39, 6-chloro-N-{5-chloro-1-[3-(methoxymethyl)bicyclo[1.1.1]pentan-1-yl]-1H-pyrazol-4-yl}-7-[1-(3-methyloxetan-3-yl)piperidin-4-yl]quinazolin-2-amine]", "LRRK2 pIC50": 8.98}
{"smiles": "O=S1(=O)CC(N2CCC(c3cc4nc(Nc5cnn(C6CC6)c5Cl)ncc4cc3Cl)CC2)C1", "note": "[Ex-8.7, 3-(4-(6-chloro-2-((5-chloro-1-cyclopropyl-1H-pyrazol-4-yl)amino)quinazolin-7-yl)piperidin-1-yl)thietane 1,1-dioxide]", "LRRK2 pIC50": ">9.20"}
{"smiles": "Cc1cc2cnc(Nc3cnn(C4CC4)c3C)nc2cc1C1CCN([C@]2(C)COC[C@@H]2O)CC1", "note": "(single isomer, unassigned) [Ex-2.39, (3S,4S) or (3R,4R) 4-(4-{2-[(1-cyclopropyl-5-methyl-1H-pyrazol-4-yl)amino]-6-methylquinazolin-7-yl}piperidin-1-yl)-4-methyloxolan-3-ol]", "LRRK2 pIC50": 8.09}
{"smiles": "Cc1cc(Nc2ncc3cc(C)c([C@@H]4CCN([C@H]5COC[C@H]5O)C[C@H]4F)cc3n2)n(C)n1", "note": "(single isomer, unassigned) [Ex-5.10, (3S,4S)(3S,4S) or (3S,4S)(3R,4R) or (3R,4R)(3S,4S) or (3R,4R)(3R,4R) 4-(4-{2-[(1,3-dimethyl-1H-pyrazol-5-yl)amino]-6-methylquinazolin-7-yl}-3-fluoropiperidin-1-yl)oxolan-3-ol]", "LRRK2 pIC50": 6.66}
{"smiles": "CO[C@H]1COC[C@H]1N1CC[C@@H](c2cc3nc(Nc4cnn(C5CC5(F)F)c4Cl)ncc3cc2C)[C@H](F)C1", "note": "(single isomer, unassigned) [Ex-4.244, (R)(3S,4S)(3S,4S) or (R)(3S,4S)(3R,4R) or (R)(3R,4R)(3S,4S) or (R)(3R,4R)(3R,4R) or (S)(3S,4S)(3S,4S) or (S)(3S,4S)(3R,4R) or (S)(3R,4R)(3S,4S) or (S)(3R,4R)(3R,4R) N-[5-chloro-1-(2,2-difluorocyclopropyl)-1H-pyrazol-4-yl]-7-[3-fluoro-1-(4-methoxyoxolan-3-yl)piperidin-4-yl]-6-methylquinazolin-2-amine]", "LRRK2 pIC50": ">9.20"}
{"smiles": "CN1CC[C@@H](c2cc3nc(Nc4cnn(C5CC5)c4Cl)ncc3cc2Cl)[C@H](F)C1", "note": "(single isomer, unassigned) [Ex-4.39, (3S,4S) or (3R,4R) 6-chloro-N-(5-chloro-1-cyclopropyl-1H-pyrazol-4-yl)-7-(3-fluoro-1-methylpiperidin-4-yl)quinazolin-2-amine]", "LRRK2 pIC50": ">9.20"}
{"smiles": "N#CC1COCC1N1CCC(c2cc3nc(Nc4cnn(C5CC5)c4Cl)ncc3cc2Cl)CC1", "note": "(single isomer, unassigned) [Ex-4.102, (3S,4S) or (3R,4R) or (3S,4R) or (3R,4S) 4-(4-(6-chloro-2-((5-chloro-1-cyclopropyl-1H-pyrazol-4-yl)amino)quinazolin-7-yl)piperidin-1-yl)tetrahydrofuran-3-carbonitrile]", "LRRK2 pIC50": ">9.20"}
{"target": "GST tagged truncated human mutant G2019S LRRK2 (Homo sapiens (Human), UniProt Q5S007, G2019S)", "test": "LRRK2 Km ATP LanthaScreen Assay", "type": "biochemical", "settings": "G2019S LRRK2, 134 μM ATP (Km ATP), mean values; read-out: LRRK2 pIC50 (converted)", "procedure,_shortened": "as §1", "units": {"IC50": "nM"}}
{"smiles": "CCn1ncc(Nc2ncc3cc(Cl)c(C4CC45CC5)cc3n2)c1C", "note": "(single isomer, unassigned) [Ex-1.1, (S) or (R) 6-chloro-N-(1-ethyl-5-methyl-1H-pyrazol-4-yl)-7-(spiro[2.2]pentan-1-yl)quinazolin-2-amine]", "IC50": 11.7}
{"smiles": "Cc1nsc(Nc2ncc3cc(Cl)c(C4CCN(C5CCOC5)CC4)cc3n2)c1Cl", "note": "(single isomer, unassigned) [Ex-8.19, (S) or (R) 6-chloro-N-(4-chloro-3-methyl-1,2-thiazol-5-yl)-7-[1-(oxolan-3-yl)piperidin-4-yl]quinazolin-2-amine]", "IC50": 1.15}
